Patent US11040036B2, “Pyruvate kinase activators for use in treating blood disorders” (Agios Pharmaceuticals, Inc., priority 2017, dated 2021)

Columns and labels:
wild type PKR [1] = target: T1, wild type PKR (Homo sapiens, UniProt P30613); assay: PKR mutant assay (AC50), wild type PKR; type: biochemical; conditions: wild type PKR enzyme; read-out: PKR WT AC50
In short: (§1)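 Human wild-type PKR or R510Q/K410E mutant (40-400 ng/well) in 50 mM Tris pH 7.5, 100 mM KCl, 5 mM MgCl2, 1 mM DTT, 0.03% BSA with PEP 0.1-0.5 mM, 180 μM NADH and LDH coupling. Compound (11-point 3-fold series from 100 μM final) preincubated 60 min at room temperature. Reaction was started with ADP (0.2-1.65 mM) and NADH depletion was followed at 340 nm to give AC50.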

PKR K410E = PKR K410E (Homo sapiens, UniProt P30613, K410E); assay: PKR mutant assay (AC50), PKR K410E; type: biochemical; conditions: PKR K410E mutant enzyme
Chain of PKR K410E (P30613 whole entry K410E): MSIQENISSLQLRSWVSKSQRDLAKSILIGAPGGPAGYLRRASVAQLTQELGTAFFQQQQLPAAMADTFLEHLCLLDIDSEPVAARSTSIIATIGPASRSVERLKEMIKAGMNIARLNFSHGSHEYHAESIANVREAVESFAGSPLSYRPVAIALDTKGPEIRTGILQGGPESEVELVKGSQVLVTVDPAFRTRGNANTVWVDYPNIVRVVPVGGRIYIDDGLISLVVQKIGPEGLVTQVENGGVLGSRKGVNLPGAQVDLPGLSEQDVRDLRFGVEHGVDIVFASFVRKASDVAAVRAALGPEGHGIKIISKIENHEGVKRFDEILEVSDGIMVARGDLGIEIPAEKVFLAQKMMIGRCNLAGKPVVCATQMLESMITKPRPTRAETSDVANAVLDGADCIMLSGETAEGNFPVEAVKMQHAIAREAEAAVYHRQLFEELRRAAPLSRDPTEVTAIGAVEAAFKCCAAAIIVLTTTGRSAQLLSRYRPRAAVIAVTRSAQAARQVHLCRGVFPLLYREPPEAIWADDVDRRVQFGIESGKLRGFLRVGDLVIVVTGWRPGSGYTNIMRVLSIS
In short: as §1

PKR R510Q = PKR R510Q (Homo sapiens, UniProt P30613, R510Q); assay: PKR mutant assay (AC50), PKR R510Q; type: biochemical; conditions: PKR R510Q mutant enzyme; read-out: PK R510Q AC50
Chain of PKR R510Q (P30613 whole entry R510Q): as the sequence (P30613 whole entry K410E) above, with E410K, R510Q counted along it
In short: as §1

wild type PKR [2] = target: T1, wild type PKR; assay: Cell based ATP assay in purified red blood cells; set-up: endogenous in cells; host or cells: purified red blood cells from blood of healthy volunteers; conditions: RBCs, overnight at 37° C., ATP levels by Cell-Titer-Glo
In short: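 Leukocyte-depleted red cells from healthy volunteers were held in AGAM (PBS, glucose, adenine, mannitol) at 1×10^7 cells/mL. They were treated with 1:4 serial compound dilutions at 0.1% DMSO final and incubated overnight at 37 °C in humidity. ATP was then quantified by CellTiter-Glo luminescence.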

T1 sequence (P30613 whole entry): as the sequence (P30613 whole entry K410E) above, with E410K counted along it

Compound | AC50 (wild type PKR [1]) [µM] | AC50 (PKR K410E) [µM] | AC50 (PKR R510Q) [µM] | AC50 (wild type PKR [2]) [µM]
Cn1c2nc(Cc3cc[nH]n3)sc2c2cnn(Cc3ccn[nH]3)c(=O)c21 | < 0.3 | < 0.3 | < 0.3 | ≤ 1
Cn1c2nc(Cc3cc[nH]n3)sc2c2cnn(Cc3csc(CO)n3)c(=O)c21 | < 0.3 | < 0.3 | < 0.3 | ≤ 1
Cn1c2nc(Cc3ccn[nH]3)sc2c2cnn(Cc3cn[nH]c3)c(=O)c21 | < 0.3 | < 0.3 | < 0.3 | ≤ 1
Cn1c2nc(Cc3cc[nH]n3)sc2c2cnn(Cc3c[nH]nn3)c(=O)c21 | < 0.3 | < 0.3 | < 0.3 | ≤ 1
Cn1c2nc(Cc3cc[nH]n3)sc2c2cnn(Cc3ccns3)c(=O)c21 | < 0.3 | < 0.3 | < 0.3 | ≤ 1
Cn1c2nc(Cc3cc[nH]n3)sc2c2cnn(Cc3nc[nH]n3)c(=O)c21 | < 0.3 | < 0.3 | < 0.3 | ≤ 1
Cc1scnc1Cn1ncc2c3sc(Cc4cc[nH]n4)nc3n(C)c2c1=O | < 0.3 | < 0.3 | < 0.3 | ≤ 1
Cn1c2nc(Cc3cscn3)sc2c2cnn(Cc3nccs3)c(=O)c21 | < 0.3 | < 0.3 | < 0.3 | ≤ 1
Cn1c2nc(Cc3cc[nH]n3)sc2c2cnn(Cc3ncc[nH]3)c(=O)c21 | < 0.3 | < 0.3 | < 0.3 | ≤ 1
Cn1c2nc(Cc3csc(CO)n3)sc2c2cnn(Cc3cc[nH]n3)c(=O)c21 | < 0.3 | < 0.3 | < 0.3 | ≤ 1
Cn1c2nc(Cc3ccccn3)sc2c2cnn(Cc3nccs3)c(=O)c21 | < 0.3 | < 0.3 | < 0.3 | ≤ 1
Cn1c2nc(Cc3ccccn3)sc2c2cnn(Cc3cc[nH]n3)c(=O)c21 | < 0.3 | < 0.3 | < 0.3 | ≤ 1
Cn1c2nc(Cc3csc(CO)n3)sc2c2cnn(Cc3nccs3)c(=O)c21 | < 0.3 | < 0.3 | < 0.3 | ≤ 1
Cn1c2nc(Cc3cc[nH]n3)sc2c2cnn(Cc3ncns3)c(=O)c21 | < 0.3 | < 0.3 | < 0.3 | ≤ 1
Cn1c2nc(Cc3cscn3)sc2c2cnn(Cc3csc(N)n3)c(=O)c21 | < 0.3 | < 0.3 | < 0.3 | ≤ 1
Cn1c2nc(Cc3cscn3)sc2c2cnn(Cc3cscn3)c(=O)c21 | < 0.3 | < 0.3 | < 0.3 | ≤ 1
Cn1c2nc(Cc3c[nH]cn3)sc2c2cnn(Cc3ncsc3C(F)(F)F)c(=O)c21 | > 0.8 | > 0.8 | > 0.8 | > 1

Compound | AC50 (wild type PKR [1]) [µM] | AC50 (PKR K410E) [µM] | AC50 (PKR R510Q) [µM] | AC50 (wild type PKR [2]) [µM]
Cn1c2nc(Cc3c[nH]cn3)sc2c2cnn(Cc3ncsc3Cl)c(=O)c21 | < 0.3 | < 0.3 | < 0.3 | ≤ 1
Cn1ccc(Cn2ncc3c4sc(Cc5cscn5)nc4n(C)c3c2=O)n1 | < 0.3 | < 0.3 | < 0.3 | ≤ 1
Cn1c2nc(Cc3ccccn3)sc2c2cnn(Cc3csc(N)n3)c(=O)c21 | < 0.3 | < 0.3 | < 0.3 | ≤ 1
Cn1c2nc(Cc3ccccn3)sc2c2cnn(Cc3cscn3)c(=O)c21 | < 0.3 | < 0.3 | < 0.3 | ≤ 1
Cn1c2nc(Cc3cscn3)sc2c2cnn(Cc3cc[nH]n3)c(=O)c21 | < 0.3 | < 0.3 | < 0.3 | ≤ 1
Cn1c2nc(Cc3c[nH]nn3)sc2c2cnn(Cc3nccs3)c(=O)c21 | 0.301 to 0.8 | < 0.3 | < 0.3 | ≤ 1
Cn1ccc(Cn2ncc3c4sc(Cc5ccccn5)nc4n(C)c3c2=O)n1 | < 0.3 | < 0.3 | < 0.3 | ≤ 1
Cn1ccc(Cn2ncc3c4sc(Cc5csc(CO)n5)nc4n(C)c3c2=O)n1 | < 0.3 | < 0.3 | < 0.3 | ≤ 1
Cn1c2nc(Cc3cc[nH]n3)sc2c2cnn(Cc3cocn3)c(=O)c21 | < 0.3 | < 0.3 | < 0.3 | ≤ 1
Cn1c2nc(Cc3c[nH]nn3)sc2c2cnn(Cc3cscn3)c(=O)c21 | < 0.3 | < 0.3 | < 0.3 | ≤ 1
Cn1c2nc(Cc3ccccn3)sc2c2cnn(Cc3c[nH]nn3)c(=O)c21 | < 0.3 | < 0.3 | < 0.3 | ≤ 1
Cn1c2nc(Cc3cc[nH]n3)sc2c2cnn(Cc3ncsc3N)c(=O)c21 | < 0.3 | < 0.3 | < 0.3 | ≤ 1
Cn1c2nc(Cc3ncsc3Br)sc2c2cnn(Cc3cc[nH]n3)c(=O)c21 | < 0.3 | < 0.3 | < 0.3 | ≤ 1
Cn1ccc(Cn2ncc3c4sc(Cc5c[nH]nn5)nc4n(C)c3c2=O)n1 | < 0.3 | < 0.3 | < 0.3 | ≤ 1
Cn1c2nc(Cc3c[nH]nn3)sc2c2cnn(Cc3cc[nH]n3)c(=O)c21 | < 0.3 | < 0.3 | < 0.3 | ≤ 1
Cn1c2nc(Cc3cc[nH]n3)sc2c2cnn(Cc3nncs3)c(=O)c21 | < 0.3 | < 0.3 | < 0.3 | ≤ 1
